We go through seven molecules from patent US7049344B2 (Wilex Biotechnology GmbH, priority 2000, dated 2006).

One series relates to rat prostate cancer. The note with it: syngeneic model of rat prostate cancer; cited from earlier work.
Another series relates to mouse breast cancer. The following applies: cited from earlier work.
For the next series, the target named is Plasmin (Homo sapiens, UniProt P00747). Put plainly: In-vitro protease inhibition, chromogenic substrate, Dixon Ki. Type of series: biochemical. The note with it: 25° C, pH 8.0; read-out: K1 Plasmin. The procedure: (§1) The uPA inhibitor activity was determined by incubating 200 μl of Tris buffer (0.05 mol/l, containing the inhibitor, 0.154 mol/l NaCl, 5% ethanol, pH 8.0), 25 μl of substrate (Pefachrome UK or BZ-β-Ala-Gly-Arg-pNA in H2O; Pentapharm Ltd, Basle, Switzerland) and 50 μl of sc-urokinase (Ribosepharm GmbH, Haan, Germany) or another corresponding protease at 25° C. After 3 min, the reaction was interrupted by adding 25 μl of acetic acid (50%) and absorbance at 405 nm was determined by means of a microplate reader (MR 5000, Dynatech, Denkendorf, Germany). The Ki values were determined by linear regression according to Dixon by means of a computer program. The Ki values are the average of at least three determinations, and the standard deviation was below 25%.

The next series deals with T1, Trypsin (UniProt P00760).
T1 sequence (P00760 1-246): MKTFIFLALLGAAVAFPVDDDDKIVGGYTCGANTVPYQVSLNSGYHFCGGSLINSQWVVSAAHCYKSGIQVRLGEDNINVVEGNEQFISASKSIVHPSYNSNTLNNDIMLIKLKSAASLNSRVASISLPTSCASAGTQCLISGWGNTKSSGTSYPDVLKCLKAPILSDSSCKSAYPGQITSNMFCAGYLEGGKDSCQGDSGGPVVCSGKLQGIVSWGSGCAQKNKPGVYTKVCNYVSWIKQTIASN
The series is described as above. It counts as biochemical. The following applies: 25° C, pH 8.0; read-out: K1 Trypsin. As to the method: as §1

The next series has as its target Thrombin (UniProt P00735). The description is as above. Type of series: biochemical. The following applies: 25° C, pH 8.0; read-out: K1 Thrombin. As to the method:
as §1

The next series deals with FXA (UniProt P00743). Described as above. The following applies: 25° C, pH 8.0; read-out: K1 FXA. It counts as biochemical. As to the method: as §1
A further series has as its target T2, uPA (sc-urokinase) (Homo sapiens, UniProt P00749).
T2 construct: purchased Ribosepharm GmbH, Haan, Germany
Description: In-vitro inhibition of urokinase, chromogenic substrate, Dixon Ki. It counts as biochemical. The note with it: 25° C, pH 8.0; average of at least three determinations; read-out: K1 uPA. As to the method: as §1

Series [1] deals with DU145 tumors (a prostate adenocarcinoma cell line). The note with it: SCID mice, oral, daily dose of 125 to 250 mg/kg/day; cited from earlier work.
Series [2] has as its system rat breast adenocarcinoma cells. The note with it: after i.v. inoculation of rat breast adenocarcinoma cells; cited from earlier work.

Structures can show the parent of a compound that is named as a salt.

Sequence of Plasmin (P00747 581-810 limits assumed, species assumed): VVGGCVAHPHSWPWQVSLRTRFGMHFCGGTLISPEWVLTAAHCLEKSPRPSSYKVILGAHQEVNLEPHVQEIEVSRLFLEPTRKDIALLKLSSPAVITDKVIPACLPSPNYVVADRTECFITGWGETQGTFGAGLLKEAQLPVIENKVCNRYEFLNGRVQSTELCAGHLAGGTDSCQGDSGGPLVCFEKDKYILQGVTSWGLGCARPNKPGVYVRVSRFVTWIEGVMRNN
Sequence of Plasmin (P00747 97-580 partner limits assumed, species assumed): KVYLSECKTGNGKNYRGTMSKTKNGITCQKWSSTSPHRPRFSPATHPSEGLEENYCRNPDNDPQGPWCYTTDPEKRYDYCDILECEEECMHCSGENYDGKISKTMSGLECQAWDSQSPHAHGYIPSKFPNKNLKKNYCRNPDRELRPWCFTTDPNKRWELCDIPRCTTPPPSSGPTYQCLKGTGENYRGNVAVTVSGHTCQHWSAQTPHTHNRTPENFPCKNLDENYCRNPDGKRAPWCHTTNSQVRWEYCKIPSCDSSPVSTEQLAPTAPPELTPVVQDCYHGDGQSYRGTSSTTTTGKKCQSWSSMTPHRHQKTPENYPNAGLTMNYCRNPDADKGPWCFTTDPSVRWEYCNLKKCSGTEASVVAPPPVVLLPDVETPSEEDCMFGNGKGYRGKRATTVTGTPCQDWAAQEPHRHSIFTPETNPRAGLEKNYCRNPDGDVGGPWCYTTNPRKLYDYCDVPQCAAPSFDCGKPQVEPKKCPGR

In the case of `N=C(N)c1cc2c(I)cccc2s1` [B428, 4-iodobenzo[b]thiophene-2-carboxamidine], the “tumor growth and metastases formation” value in the series on rat prostate cancer was “decrease of tumor growth and metastases formation”; in the series on mouse breast cancer (syngeneic model of mouse breast cancer), “decrease of tumor growth and metastases formation”. Besides, the primary tumor growth entry with mouse breast cancer (B428 administered together with the antiestrogen tamoxifen) was “further decrease in primary tumor growth”.
Regarding `N=C(N)Nc1ccc(CNC(=O)[C@@H](CO)c2ccccc2)cc1` (racemic) [ST-390, N-(4-guanidinobenzyl)-D,L-tropamide Hydrochloride], the Ki on Plasmin is over 1 mM; at Trypsin, over 1 mM; at Thrombin it was over 1 mM; at FXA, over 1 mM; on uPA (sc-urokinase), 0.051 mM.
Take `N=C(N)Nc1ccc(CNC(=O)C(C(=O)O)c2ccccc2)cc1` (centres unmarked) [ST-406, N-(4-guanidinobenzyl) 2-(hydroxycarbonyl)-2-phenylacetamide Hydrochloride]: at uPA (sc-urokinase), the Ki was under 0.01 mM.
For the molecule `N=C(N)c1ccc(N)cc1` [p-Aminobenzamidine], in series [1], the “growth rate of DU145 tumors” value was “distinct decrease” and the side effects result was “negligible”.
For `N=C(N)Nc1ccc(CNC(=O)C(C(=O)OCc2ccccc2)C23CC4CC(CC(C4)C2)C3)cc1` (centres unmarked) [ST-100], the Ki at uPA (sc-urokinase) is under 0.001 mM.
With `N=C(N)NC(=O)c1nc(Cl)c(N)nc1N` [Amiloride], the “formation of lung metastases” value in series [2] is “prevents the formation of lung metastases”.
In the case of `N=C(N)Nc1ccc(CNC(=O)C(C(=O)OCc2ccccc2)c2ccccc2)cc1` (centres unmarked) [ST-401, N-(4-guanidinobenzyl) 2-(benzyloxycarbonyl)-2-phenylacetamide hydrochloride], the Ki is over 1 mM at Plasmin, over 1 mM at Thrombin, over 1 mM at FXA and 0.0014 mM at uPA (sc-urokinase).
